Laboratory results from PubChem BioAssay (NCI).
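Step 1: Grow cells in 96-well plates. Step 2: Expose to compound for 48 hours at 5 concentrations. Step 3: Interpolate endpoints linearly; if unreached, use highest concentration. The concentration for full growth arrest is given as TGI.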

How the values were obtained:
Test in all cases: NCI anticancer screen, dose series, 48 h
[1] = tested on: M14 melanoma
[2] = tested on: TK-10 renal
[3] = tested on: T-47D breast
[4] = tested on: NCI-H460 lung
[5] = tested on: NCI-H23 lung
[6] = tested on: RPMI-8226 leukemia
[7] = tested on: DU-145 prostate
[8] = tested on: SF-268 CNS
[9] = tested on: A549 NSCLC
[10] = tested on: RXF 393 renal
[11] = tested on: OVCAR-8 ovarian
[12] = tested on: HCT-15 colon
[13] = tested on: SW-620 colon
[14] = tested on: MDA-N
[15] = tested on: SF-295 CNS
[16] = tested on: COLO 205 colon
[17] = tested on: NCI-H522 lung
[18] = tested on: HT29 colon
[19] = tested on: HCC-2998 colon
[20] = tested on: HS 578T breast
[21] = tested on: MDA-MB-435
[22] = tested on: 786-0 renal
[23] = tested on: MOLT-4 leukemia
[24] = tested on: IGROV1 ovarian
[25] = tested on: HCT-116 colon
[26] = tested on: OVCAR-4 ovarian
[27] = tested on: SK-OV-3 ovarian
[28] = tested on: MDA-MB-231 breast
[29] = tested on: MALME-3M melanoma
[30] = tested on: NCI-H226 lung
[31] = tested on: LOX IMVI melanoma
[32] = tested on: EKVX NSCLC
[33] = tested on: NCI/ADR-RES ovarian
[34] = tested on: OVCAR-5 ovarian
[35] = tested on: A498 renal
[36] = tested on: KM12 colon
[37] = tested on: UACC-62 melanoma
[38] = tested on: SK-MEL-2 melanoma
[39] = tested on: OVCAR-3 ovarian
[40] = tested on: MCF7 breast
[41] = tested on: SF-539 CNS
[42] = tested on: SN12C renal
[43] = tested on: HOP-62 NSCLC
[44] = tested on: K-562 leukemia
[45] = tested on: SK-MEL-28 melanoma
[46] = tested on: PC-3 prostate
[47] = tested on: UACC-257 melanoma
[48] = tested on: SNB-75 CNS
[49] = tested on: CAKI-1 renal
[50] = tested on: ACHN renal
[51] = tested on: BT-549 breast
[52] = tested on: U251 CNS
[53] = tested on: SNB-19 CNS
[54] = tested on: CCRF-CEM leukemia
[55] = tested on: SK-MEL-5 melanoma
[56] = tested on: HL-60(TB) leukemia
[57] = tested on: HOP-92 NSCLC
[58] = tested on: UO-31 renal
[59] = tested on: SR leukemia

## Cc1cccc2[nH]c3c(c(O)cc4[nH]c5cccc(C)c5c(=O)c43)c(=O)c12
[1]
  TGI: > 10 µM
[2]
  TGI: > 10 µM
[3]
  TGI: > 10 µM
[4]
  TGI: > 10 µM
[5]
  TGI: 8.5 µM
[6]
  TGI: > 10 µM
[7]
  TGI: > 10 µM
[8]
  TGI: > 10 µM
[9]
  TGI: > 10 µM
[10]
  TGI: > 10 µM
[11]
  TGI: > 10 µM
[12]
  TGI: > 10 µM
[13]
  TGI: > 10 µM
[14]
  TGI: > 10 µM
[15]
  TGI: > 10 µM
[16]
  TGI: > 10 µM
[17]
  TGI: > 10 µM
[18]
  TGI: > 10 µM
[19]
  TGI: > 10 µM
[20]
  TGI: > 10 µM
[21]
  TGI: > 10 µM
[22]
  TGI: 8.03 µM
[23]
  TGI: > 10 µM
[24]
  TGI: > 10 µM
[25]
  TGI: > 10 µM
[26]
  TGI: > 10 µM
[27]
  TGI: > 10 µM
[28]
  TGI: > 10 µM
[29]
  TGI: > 10 µM
[30]
  TGI: > 10 µM
[31]
  TGI: > 10 µM
[32]
  TGI: > 10 µM
[33]
  TGI: > 10 µM
[34]
  TGI: > 10 µM
[35]
  TGI: > 10 µM
[36]
  TGI: > 10 µM
[37]
  TGI: > 10 µM
[38]
  TGI: > 10 µM
[39]
  TGI: > 10 µM
[40]
  TGI: > 10 µM
[41]
  TGI: > 10 µM
[42]
  TGI: > 10 µM
[43]
  TGI: > 10 µM
[44]
  TGI: > 10 µM
[45]
  TGI: > 10 µM
[46]
  TGI: > 10 µM
[47]
  TGI: > 10 µM
[48]
  TGI: > 10 µM
[49]
  TGI: > 10 µM
[50]
  TGI: > 10 µM
[51]
  TGI: > 10 µM
[52]
  TGI: > 10 µM
[53]
  TGI: > 10 µM
[54]
  TGI: > 10 µM
[55]
  TGI: > 10 µM
[56]
  TGI: > 10 µM

## N=c1oc2ccccc2cc1-c1nc2ccccc2[nH]1
[57]
  TGI: 35.5 µM
[1]
  TGI: > 100 µM
[2]
  TGI: 38.4 µM
[3]
  TGI: > 100 µM
[4]
  TGI: > 100 µM
[58]
  TGI: 24.8 µM
[59]
  TGI: > 100 µM
[6]
  TGI: > 100 µM
[7]
  TGI: 35.7 µM
[8]
  TGI: > 100 µM
[9]
  TGI: > 100 µM
[10]
  TGI: > 100 µM
[11]
  TGI: > 100 µM
[12]
  TGI: > 100 µM
[13]
  TGI: > 100 µM
[14]
  TGI: 40.5 µM
[15]
  TGI: > 100 µM
[16]
  TGI: > 100 µM
[17]
  TGI: 4.57 µM
[18]
  TGI: > 100 µM
[19]
  TGI: > 100 µM
[20]
  TGI: > 100 µM
[21]
  TGI: 48.2 µM
[22]
  TGI: 28.8 µM
[23]
  TGI: > 100 µM
[24]
  TGI: > 100 µM
[25]
  TGI: > 100 µM
[26]
  TGI: > 100 µM
[27]
  TGI: > 100 µM
[28]
  TGI: 57.6 µM
[29]
  TGI: 72 µM
[30]
  TGI: > 100 µM
[31]
  TGI: > 100 µM
[32]
  TGI: 41.1 µM
[33]
  TGI: 64.2 µM
[34]
  TGI: > 100 µM
[36]
  TGI: > 100 µM
[37]
  TGI: > 100 µM
[38]
  TGI: > 100 µM
[40]
  TGI: > 100 µM
[41]
  TGI: > 100 µM
[42]
  TGI: > 100 µM
[43]
  TGI: > 100 µM
[44]
  TGI: 82.6 µM
[45]
  TGI: > 100 µM
[46]
  TGI: > 100 µM
[47]
  TGI: > 100 µM
[48]
  TGI: > 100 µM
[49]
  TGI: > 100 µM
[50]
  TGI: 45.4 µM
[51]
  TGI: 87.4 µM
[52]
  TGI: > 100 µM
[53]
  TGI: > 100 µM
[54]
  TGI: > 100 µM
[55]
  TGI: > 100 µM
[56]
  TGI: 87 µM

## COc1cc(C2c3cc4c(cc3OC(NNS(=O)(=O)c3ccc(C)cc3)C2C)OCO4)cc(OC)c1OC (stereo not drawn)
[57]
  TGI: 50.1 µM
[1]
  TGI: 14.5 µM
[2]
  TGI: > 79 µM
[3]
  TGI: > 100 µM
[4]
  TGI: 12.4 µM
[58]
  TGI: > 100 µM
[5]
  TGI: > 74.6 µM
[6]
  TGI: 18.4 µM
[7]
  TGI: > 100 µM
[8]
  TGI: > 70.5 µM
[9]
  TGI: 34.4 µM
[10]
  TGI: 23.8 µM
[11]
  TGI: 46.8 µM
[12]
  TGI: > 22.8 µM
[13]
  TGI: > 100 µM
[14]
  TGI: 2.01 µM
[15]
  TGI: 6.86 µM
[16]
  TGI: 16.8 µM
[17]
  TGI: 4.87 µM
[18]
  TGI: 5.38 µM
[19]
  TGI: > 23.4 µM
[20]
  TGI: 15.2 µM
[21]
  TGI: 2.25 µM
[22]
  TGI: 31.5 µM
[23]
  TGI: > 100 µM
[24]
  TGI: > 67.3 µM
[25]
  TGI: 12.1 µM
[26]
  TGI: 48.4 µM
[27]
  TGI: > 70.6 µM
[28]
  TGI: > 64.1 µM
[29]
  TGI: > 60.8 µM
[30]
  TGI: 13.2 µM
[31]
  TGI: > 100 µM
[32]
  TGI: 18.3 µM
[33]
  TGI: > 100 µM
[34]
  TGI: > 100 µM
[35]
  TGI: 5.69 µM
[36]
  TGI: 32.3 µM
[37]
  TGI: 20.3 µM
[38]
  TGI: 36.9 µM
[39]
  TGI: 7.78 µM
[40]
  TGI: > 39.8 µM
[41]
  TGI: 3.96 µM
[42]
  TGI: > 71.4 µM
[43]
  TGI: 4.68 µM
[45]
  TGI: > 91.2 µM
[46]
  TGI: > 72.5 µM
[47]
  TGI: > 53.2 µM
[48]
  TGI: 17.1 µM
[49]
  TGI: 23.9 µM
[50]
  TGI: > 52 µM
[51]
  TGI: 45.6 µM
[52]
  TGI: 13.4 µM
[53]
  TGI: > 49.1 µM
[55]
  TGI: 25 µM
[56]
  TGI: 6.59 µM
